From patent publication US10017509B2, “Macrocylic pyrimidine derivatives” (Janssen Pharmaceutica NV, priority 2014, dated 2018) come the findings set out here.

Bounds are passed on as bounds.

The target in experiment [1] is T1, EF2K (Homo sapiens, UniProt O00418).
T1 construct: host or cells: LN-229 cell lysate
T1 sequence (O00418 1-725): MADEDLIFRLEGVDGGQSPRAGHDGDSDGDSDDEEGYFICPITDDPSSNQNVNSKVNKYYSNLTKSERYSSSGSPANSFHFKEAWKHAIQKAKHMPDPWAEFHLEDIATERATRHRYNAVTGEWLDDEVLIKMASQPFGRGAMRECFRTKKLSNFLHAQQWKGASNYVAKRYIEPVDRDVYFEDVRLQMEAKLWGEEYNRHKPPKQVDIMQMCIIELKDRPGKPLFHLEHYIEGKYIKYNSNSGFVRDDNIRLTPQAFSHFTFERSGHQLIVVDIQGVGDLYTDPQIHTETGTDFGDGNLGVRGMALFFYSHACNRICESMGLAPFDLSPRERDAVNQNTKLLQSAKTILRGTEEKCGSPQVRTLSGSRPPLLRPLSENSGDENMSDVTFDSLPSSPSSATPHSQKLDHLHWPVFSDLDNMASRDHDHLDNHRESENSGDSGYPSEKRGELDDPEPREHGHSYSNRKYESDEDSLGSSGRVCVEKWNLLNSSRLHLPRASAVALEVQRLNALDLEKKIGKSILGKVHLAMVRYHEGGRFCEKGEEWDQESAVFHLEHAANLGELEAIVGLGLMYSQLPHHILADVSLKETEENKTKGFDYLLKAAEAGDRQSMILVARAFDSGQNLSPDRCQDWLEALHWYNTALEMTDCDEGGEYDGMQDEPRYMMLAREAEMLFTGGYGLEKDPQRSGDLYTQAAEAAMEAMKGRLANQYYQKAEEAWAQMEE
Kind of experiment: EF2K cell-based assay (P-EF2 AlphaLISA, 2-deoxyglucose stimulated MCF10A cells). Conditions: 2.5 mM 2-deoxyglucose stimulated, P-EF2 Thr56, pIC50 = -log IC50 (M), read-out: eEF2K_C_PThr56 pIC50 (converted). On the procedure: In this assay, 2.5 mM 2-deoxyglucose was used to deplete intracellular ATP and activate 5′ adenosine monophosphate-activated protein kinase (AMPK) in the immortalized epithelial breast cell lines, MCF10A. MCF 10A cells were purchased from ATCC (CRL-10317).
MCF10A cells are seeded at a density of 1.25×10^5 Cells/ml at 100 μl/well in a 96-well plate and incubated for 24 hours (37° C., 5% CO2). Compound is added for 1 hour, and cell are stimulated with 2.5 mM of 2-deoxy-glucose for 4 hours. Medium is then removed, and cells are lysed in an ice-cold buffer M-PER (Thermo Scientific, 78501), containing protease and phosphatase inhibitors. P-EF2 levels are determined in these lysates using the P-EF2 AlphaLISA described above.
(§1) (pIC50 is −log IC50 where IC50 represents the concentration expressed in M at which the test compound gives 50% inhibition)

Experiment [2] concerns the target T1, EF2K. Briefly: Biochemical EF2K lysate-based kinase assay (AlphaLISA p-eEF2 Thr56). The note with it: pIC50 = -log IC50 (M), read-out: eEF2K_C_alphalisa pIC50 (converted).
Excerpt: Biochemical EF2K Lysate-Based Kinase Assay
LN-229 cells were purchased from ATCC (CRL-2611); these are glioblastoma cells. Cell lysates from LN229 were used in this kinase assay to provide both the kinase and the substrate (EF2). The AlphaLISA p-eEF2 (Thr56) detection assay was developed using a sandwich assay format with two specific antibodies recognizing different epitopes of the target, including one antibody against the phosphorylation site of interest. One anti-eEF2 antibody was conjugated onto AlphaLISA Acceptor beads, while the second antibody was biotinylated and captured by streptavidin coated Donor beads.
Compound was mixed with LN-229 cell lysates in the presence of a kinase buffer (e.g. HEPES) at a pH of 6.6, containing 10 mM Mg^2+ (e.g. magnesium acetate) and 10 mM adenosine-tri-phosphate (ATP) and incubated at room temperature for 15 minutes. The kinase reaction was stopped with excess ethylenediaminetetraacetic acid disodium salt and the biotinylated-anti phospho eEF2 antibody (3 nM) was added for 1 hour. Then the anti-EF2 acceptor beads (10 μg/ml) as well as the streptavidin coated donor beads (20 μg/ml) were added for 1 hour, and the AlphaLISA signal was measured in an Envision instrument once, left overnight, and measured again for the final read.
as §1

For experiment [3], the target named is Vps34 (PIK3C3 lipid kinase) (Homo sapiens, UniProt Q8NEB9). Briefly: Biochemical Vps34 lipid kinase assay (ADP-Glo). Conditions: for remaining activity at 1 µM: 1 h, read-out: VPS34_1microM_% of cntrl; for IC50: serial half-log dilution 10 μM to 0.3 nM, pIC50 = -log IC50 (M). As to the method: Biochemical Vps34 Lipid Kinase Assay
A non-radiometric kinase assay (ADP-Glo™ Assay, Promega, Madison, Wi, USA) was used for measuring the kinase activity of the PIK3C3 lipid kinase. All kinase assays were performed in 96-well half-area microtiter plates in a 25 μl reaction volume. The reaction cocktail was pipetted in 3 steps in the following order: • 10 μl of ATP solution (in assay buffer, see below) • 5 μl of test sample in 5% DMSO 10 μl of enzyme/substrate mixture
All lipid kinase assays contained 50 mM HEPES (4-(2-hydroxyethyl)-1-piperazineethanesulfonic acid)-NaOH, pH 7.5, 1 mM EGTA ((ethylene glycol tetraacetic acid), 100 mM NaCl, 0.03% CHAPS (3-[(3-Cholamidopropyl)dimethylammonio]-1-propanesulfonate), 2 mM DTT (Dithiothreitol), 20 μM ATP (corresponding to the apparent ATP-Km), kinase (7.6 nM) and substrate (50 μM). The assay for PIK3C3 additionally contained 3 mM MnCl2.
The reaction cocktails were incubated at 30° C. for 60 minutes. The reaction was stopped with 25 μl ADP-Go™ reagent per well. Plates were incubated for 40 minutes at room temperature, followed by addition of 50 μl kinase detection reagent per well and incubation for 60 minutes at room temperature. Signal was determined with a microplate luminescence reader (Victor, Perkin Elmer). The assay was either performed using a single dose of compound (1 μM final concentration in the assay reaction) with resulting data expressed as residual activity compared to control (DMSO), or using a serial (half-log) dilution of compounds starting at 10 μM and down to 0.3 nM (final concentrations in the assay) with data expressed as the pIC50.
as §1

Where [4] appears, read: single dose 1 μM compound, residual activity compared to control (DMSO).

Chain of Vps34 (PIK3C3 lipid kinase) (Q8NEB9 whole entry, species assumed): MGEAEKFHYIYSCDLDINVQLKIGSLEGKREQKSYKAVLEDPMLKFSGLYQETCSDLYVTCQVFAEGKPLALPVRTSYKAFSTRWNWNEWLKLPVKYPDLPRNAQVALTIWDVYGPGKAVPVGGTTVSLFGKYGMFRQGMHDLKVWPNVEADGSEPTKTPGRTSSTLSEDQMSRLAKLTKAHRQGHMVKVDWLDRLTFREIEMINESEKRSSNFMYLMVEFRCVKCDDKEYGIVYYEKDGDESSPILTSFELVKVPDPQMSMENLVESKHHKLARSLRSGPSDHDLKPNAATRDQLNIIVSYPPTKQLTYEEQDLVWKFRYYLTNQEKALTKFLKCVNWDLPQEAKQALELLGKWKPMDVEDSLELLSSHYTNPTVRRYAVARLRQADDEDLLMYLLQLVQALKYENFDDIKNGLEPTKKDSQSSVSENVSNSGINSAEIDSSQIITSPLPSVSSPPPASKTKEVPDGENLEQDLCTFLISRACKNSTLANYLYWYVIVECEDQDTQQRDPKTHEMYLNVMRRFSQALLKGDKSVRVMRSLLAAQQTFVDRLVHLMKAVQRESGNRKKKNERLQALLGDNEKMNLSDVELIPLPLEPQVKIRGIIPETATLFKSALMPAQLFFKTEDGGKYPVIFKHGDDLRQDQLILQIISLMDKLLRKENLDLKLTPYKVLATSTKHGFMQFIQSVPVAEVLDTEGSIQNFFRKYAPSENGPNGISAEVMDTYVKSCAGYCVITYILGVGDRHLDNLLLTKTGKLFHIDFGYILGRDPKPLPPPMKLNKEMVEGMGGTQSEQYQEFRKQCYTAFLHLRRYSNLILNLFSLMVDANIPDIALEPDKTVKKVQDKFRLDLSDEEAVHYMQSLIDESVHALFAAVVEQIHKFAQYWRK

With `CNC(=O)c1ccc2cc1CN1CCN(CC1)CC(=O)NCCCNc1ccc(cn1)-c1ccnc(n1)N2` [Compound 13], the results for the IC50 (on EF2K [1]; at EF2K [2]; in experiment [3]) were 6.76e-06 M, 3.98e-07 M and 8.71e-08 M, respectively. Also, the remaining activity at 1 µM in experiment [3] (setting [4]) was determined as 9%.
Taken in the same sequence, the figures for `N#Cc1ccc2cc1CN1CCN(CC1)CC(=O)NCCCNc1ccc(cn1)-c1ccnc(n1)N2` [Compound 14] were 7.59e-06 M, 7.08e-08 M, 1.05e-07 M and 3.37%.
Turning to `NC(=O)c1ccc2cc1CN1CCN(CC1)CC(=O)NCCCNc1ccc(cn1)-c1ccnc(n1)N2` [Compound 15], the results for the IC50 (on EF2K [1]; on EF2K [2]; in experiment [3]) were 2.75e-05 M, 6.03e-07 M and 5.01e-08 M, respectively. In experiment [3] (setting [4]), the remaining activity at 1 µM was 1.07%.
On to `O=C1CN2CCN(CC2)Cc2cc(ccc2C(=O)O)Nc2nccc(n2)-c2ccc(nc2)NCCCN1` [Compound 16], for which the values for the IC50 (on EF2K [1]; on EF2K [2]; in experiment [3]) were over 3.02e-05 M, 2.04e-06 M and 3.63e-07 M, respectively. In addition, the remaining activity at 1 µM in experiment [3] (setting [4]) was found to be 15.9%.
`CN(C)C(=O)c1ccc2cc1CN1CCN(CC1)CC(=O)N(C)CCCN(C)c1ccc(cn1)-c1ccnc(n1)N2` [Compound 17]: the IC50 is over 3.02e-05 M at EF2K [1] and 1.1e-06 M at EF2K [2]. Also, the remaining activity at 1 µM in experiment [3] (setting [4]) came to 39.5%.
In the case of `CN(C)C(=O)c1ccc2cc1CN1CCN(CC1)CC(=O)NCCCNc1ccc(cn1)-c1ccnc(n1)N2` [Compound 18], the IC50 is over 3.02e-05 M on EF2K [1], 1.91e-06 M at EF2K [2] and 9.12e-07 M in experiment [3]. Further, the remaining activity at 1 µM in experiment [3] (setting [4]) came to 23.4%.
Regarding `Cc1c2cccc1Nc1nccc(n1)-c1ccc(nc1)NCCCNC(=O)CN1CCN(CC1)C2` [Compound 19], the IC50 was over 3.02e-05 M on EF2K [1] and about 1.58e-06 M at EF2K [2]. Besides, the remaining activity at 1 µM in experiment [3] (setting [4]) stood at 87.1%.
On to `CN1CCCCN(C)c2ccc(cn2)-c2ccnc(n2)Nc2cccc(c2)CN2CCN(CC2)CC1=O` [Compound 20], for which the IC50 at EF2K [1] was over 3.02e-05 M; on EF2K [2], 1.82e-06 M; in experiment [3], 1.62e-07 M. Also, the remaining activity at 1 µM in experiment [3] (setting [4]) turned out to be 8.85%.
On to `CC(C)N1CCNc2ccc(cn2)-c2ccnc(n2)Nc2cccc(c2)CN2CCN(CC2)CC1=O` [Compound 21], for which the IC50 on EF2K [1] is 8.71e-06 M; at EF2K [2], 1.1e-06 M; in experiment [3], 5.01e-07 M. In addition, in experiment [3] (setting [4]), the remaining activity at 1 µM was determined as 23.6%.
On to `CC(C)N1CCCNc2ccc(cn2)-c2ccnc(n2)Nc2cccc(c2)CN2CCN(CC2)CC1=O` [Compound 22], for which the IC50 on EF2K [1] is over 3.02e-05 M; on EF2K [2] it was 7.24e-06 M; in experiment [3], 6.17e-06 M. Besides, the remaining activity at 1 µM in experiment [3] (setting [4]) is 17.3%.
For `O=C1CN2CCN(CC2)Cc2cccc(c2)Nc2nccc(n2)-c2ccc(nc2)NCC(O)CN1` (stereo not drawn) [Compound 23] the same measures were 2.24e-05 M, 5.01e-07 M, 1.51e-07 M and 7.45%.
Regarding `O=C1CN2CCN(CC2)Cc2cccc(c2)Nc2nccc(n2)-c2ccc(nc2)N2CCCC2CN1` (stereo not drawn) [Compound 26], the IC50 was over 3.02e-05 M on EF2K [1], 1.48e-05 M at EF2K [2] and 1.02e-07 M in experiment [3]. In addition, in experiment [3] (setting [4]), the VPS34_1microM_% of cntrl is reported as 5.23 % of cntrl.
In the case of `CN1CCCN(C)c2ccc(cn2)-c2ccnc(n2)Nc2cccc(c2)S(=O)(=O)N2CCN(CC2)CC1=O` [Compound 27], the IC50 on EF2K [1] was over 3.02e-05 M; on EF2K [2] it was 2.95e-06 M. The remaining activity at 1 µM in experiment [3] (setting [4]) was 50.7%.
For the molecule `CN1CCCN(C)c2ccc(cn2)-c2ccnc(n2)Nc2cccc(c2)C(=O)N2CCN(CC2)CC1=O` [Compound 28], the IC50 at EF2K [1] was over 3.02e-05 M; at EF2K [2], about 5.5e-08 M. Besides, the remaining activity at 1 µM in experiment [3] (setting [4]) stood at 45.6%.
For the molecule `CN1CCCN(C)c2ccc(cn2)-c2ccnc(n2)Nc2cccc(c2)CCN2CCN(CC2)CC1=O` [Compound 29], the IC50 on EF2K [1] is over 3.02e-05 M; on EF2K [2], 1.74e-05 M; in experiment [3], 2e-07 M. Further, the remaining activity at 1 µM in experiment [3] (setting [4]) was found to be 5.67%.
On to `O=C1CN2CCN(CC2)Cc2cccc(c2)Nc2nccc(n2)-c2ccc(nc2)NCCCN1` [Compound 31], for which the IC50 on EF2K [1] is about 3.98e-06 M; at EF2K [2] it was 1.07e-07 M; in experiment [3], 8.71e-08 M. Besides, the remaining activity at 1 µM in experiment [3] (setting [4]) amounted to 8.47%.
As to `CN1CCCN(C)c2ccc(cn2)-c2ccnc(n2)Nc2ccnc(c2)CN2CCN(CC2)CC1=O` [Compound 32], the IC50 is 5.13e-06 M on EF2K [1], 1.17e-07 M on EF2K [2] and 1.45e-07 M in experiment [3]. Besides, the remaining activity at 1 µM in experiment [3] (setting [4]) came out at 11.1%.
With `CN1CCCN(C)c2ccc(cn2)-c2ccnc(n2)Nc2cncc(c2)CN2CCN(CC2)CC1=O` [Compound 33], the IC50 at EF2K [1] is 2.14e-05 M; on EF2K [2] it was 6.61e-07 M; in experiment [3], 7.41e-07 M. Moreover, the remaining activity at 1 µM in experiment [3] (setting [4]) amounted to 23.9%.
`O=C1CN2CCN(CC2)Cc2cccc(c2)Nc2nccc(n2)-c2ccc(nc2)CNCCN1` [Compound 34]: the results for the IC50 (on EF2K [1]; at EF2K [2]; in experiment [3]) were about 7.24e-06 M, 5.25e-07 M and 8.32e-07 M, respectively.
For `O=C1CN2CCN(CC2)Cc2cccc(c2)Nc2nccc(n2)-c2ccc(nc2)CN(CC2CC2)CCN1` [Compound 35], the IC50 was 1.32e-07 M at EF2K [1], 9.33e-09 M on EF2K [2] and 7.76e-08 M in experiment [3].
Turning to `C#CCN1CCNC(=O)CN2CCN(CC2)Cc2cccc(c2)Nc2nccc(n2)-c2ccc(nc2)C1` [Compound 36], the results for the IC50 (at EF2K [1]; on EF2K [2]; in experiment [3]) were 1.32e-06 M, 4.37e-08 M and 3.39e-07 M, respectively. For the same molecule, in experiment [3] (setting [4]), the remaining activity at 1 µM came out at 16%.
With `C=CCCN1CCNC(=O)CN2CCN(CC2)Cc2cccc(c2)Nc2nccc(n2)-c2ccc(nc2)C1` [Compound 37], the IC50 on EF2K [1] is 1.82e-07 M; at EF2K [2] it was 7.59e-09 M; in experiment [3], 9.55e-08 M.
`CC(C)CN1CCNC(=O)CN2CCN(CC2)Cc2cccc(c2)Nc2nccc(n2)-c2ccc(nc2)C1` [Compound 38]: the IC50 at EF2K [1] is 1.86e-07 M; at EF2K [2], 8.91e-09 M; in experiment [3], 7.76e-08 M.
